Data taken from PMC10643403, “Targeting the Schistosoma mansoni nutritional mechanisms to design new antischistosomal compounds” (Scientific Reports, 2023).
Values after ≈ are worked out from the molar mass of the structure shown. Like-named read-outs stand apart in the source and are kept apart here.

What was measured:
S. mansoni adult worms = test: In vitro antischistosomal assay on adult worms; format: cell-based, Schistosoma mansoni; conditions: for Activity against 49-day-old S. mansoni worms at 50 µM: adult worms, initial in vitro trial, 72 h; for EC50: Schistosoma mansoni, based on mortality, after 72 h, 95% confidence interval in square brackets
Method: The antischistosomal assay was performed according to the methodology previously described[16],[19],[20]. Briefly, […], were incubated in flat bottom 24-well plates (Corning, New York, NY, USA) in RPMI 1640 culture medium (Vitrocell, Campinas, SP, Brazil) supplemented with 5% inactivated fetal calf serum, antibiotics (100 U/mL penicillin and 100 μg/mL streptomycin), and buffered with HEPES 25 mM (Sigma-Aldrich, St. Louis, MO, USA). Compounds were dissolved in dimethyl sulfoxide (DMSO at a final concentration of 0.5% v/v) and tested at 50 μM using PZQ 2 μM and DMSO 0.5% as positive and negative controls, respectively. Parasites were kept for 72 h (37 °C, 5% CO2, Panasonic, Osaka, Japan) and their viability was assessed using a Motic AE2000 inverted microscope (Vancouver, Canada)[21]. Each experiment was performed in triplicate and repeated at least three times. The negative control (using the highest concentration of DMSO, i.e., 0.5) and positive control (praziquantel 2 µM) were included.
Each concentration was tested in five replicates, and experiments were repeated once.

S. mansoni-infected mice = test: In vivo antiparasitic study in an animal model of schistosomiasis; conditions: 400 mg/kg single oral dose, vs infected untreated control
Method: In vivo studies in S. mansoni-infected mice were performed according to standard protocols[20],[26]. Rodents (3 weeks old) were infected subcutaneously with 80 S. mansoni cercariae each and animals were randomly divided into experimental groups (five mice per group). Compounds were dissolved in 2% ethanol in water (v/v) and tested at a single oral dose (400 mg/kg) administered 42 days post-infection[27]. For comparison, praziquantel (400 mg/kg) and a corresponding amount of vehicle were administered to groups of five schistosomes-infected animals in the same period[28],[29]. […] The percentage of worm and egg reduction was calculated by means of the following equation: % reduction = [(value of untreated control group − value of treatment group)/value of untreated control group] × 100%[32]. The nonparametric Kruskal–Wallis test was used to compare the medians of the responses between the treatment and control groups using the GraphPad Prism software (version 8.0; CA, USA). Differences were considered statistically significant at P < 0.05[9].

Caenorhabditis elegans = format: in vivo; conditions: L4 stage, 24 h
Method: Caenorhabditis elegans wild-type (N2 strain), kindly provided by Dr. Carlos E. Winter (University of São Paulo), was routinely cultured at 22 °C on nematode growth medium (NGM) plates seeded with Escherichia coli (strain OP50) as a food source according to standard protocols.
For the drug assessment, the age-synchronized L1 stage was cultivated on standard NGM plates. When at the L4 stage, approximately 25 nematodes were transferred to each well of a 96-wells NGM plates containing the drug of interest at the desired concentration (10, 25, 50, 100, and 200 μM) along with a positive control (levamisole 10 μM) and a negative control (DMSO 0.5%). Nematodes were kept at 22 °C for 24 h, and their viability was verified microscopically using a Motic AE2000 inverted microscope (Vancouver, Canada) equipped with an ultra-high definition (UHD) camera and with a 48-inch 4K-UHD monitor system (LG Electronics, São Paulo, Brazil)[33].

Vero cells = test: In vitro cytotoxicity assay (MTT) on Vero cells; format: cell-based, African green monkey; conditions: CC50 on Vero cells divided by EC50 on schistosomes (based on the highest concentration)
Method: (§1) The life cycle of S. mansoni (Belo Horizonte strain) is maintained through routine passage through Biomphalaria glabrata snails and Swiss mice at the Research Center on Neglected Diseases (Guarulhos University, SP, Brazil). Both rodents and snails were kept under environmentally controlled conditions (25 °C; humidity of 50%), with free access to food and water. Vero cells were obtained from the American Type Culture Collection (ATCC CCL-81; Manassas, VA, USA). Cells were routinely cultured in Dulbecco’s Modified Eagle Medium (DMEM) supplemented with 5% heat-inactivated fetal bovine serum and antibiotics (100 U/mL penicillin and 100 μg/mL streptomycin) at 37 °C in a humidified atmosphere containing 5% CO2 [17].
(§2) The cytotoxicity of the compounds on the Vero cells was determined by thiazolyl blue tetrazolium bromide (MTT) assay (Sigma-Aldrich) as previously described[21],[24]. […] After 72 h, MTT solution was added to each well and the absorbance at 595 nm was read on a spectrophotometer (Epoch, BioTek Instruments, Winooski, VT, USA).

[1] = In vitro cytotoxicity assay (MTT) on Vero cells; format: cell-based, African green monkey; conditions: African green monkey, Vero cells (ATCC CCL-81); Vero cells; MTT assay; 72 h; read-out: Mammalian cells CC50
Method: as §1, §2

[2] = test system: cathepsin B1 from Schistosoma mansoni (SmCB1); set-up: method as in ref 2 (Fonseca et al.); conditions: ref 2 (Fonseca et al.), cited from earlier work
[3] = test system: Schistosoma mansoni worms; set-up: method as in ref 1 (Santiago et al.); conditions: after 144 h; target not determined; ref 1 (Santiago et al.); cited from earlier work
[4] = female adult worms, read-out: S. mansoni EC50 Female
[5] = male adult worms, read-out: S. mansoni EC50 Male

With Clc1ccc2c(N/N=C/c3ccccc3)ccnc2c1 [GPQF-8Q1, 4-[(2E)-2-benzylidenehydrazinyl]-7-chloroquinoline] the “Activity against 49-day-old S. mansoni worms at 50 µM” value (shortened to “Activity”) (S. mansoni adult worms) was “Inactive” and the melting point was 220 to 224 °C.

In the case of O=[N+]([O-])c1ccc(/C=N/Nc2ccnc3cc(Cl)ccc23)cc1 [GPQF-8Q3, 7-Chloro-4-[(2E)-2-(4-nitrobenzylidene)hydrazinyl]quinoline], the “Activity” value (S. mansoni adult worms) is reported as “Inactive”.

With COc1cc(/C=N/Nc2ccnc3cc(Cl)ccc23)ccc1O [GPQF-8Q4, 4-{(E)-[2-(7-chloroquinolin-4-yl)hydrazinylidene]methyl}-2-methoxyphenol] the “Activity” value (S. mansoni adult worms) was “Inactive”.

For O=[N+]([O-])c1ccc(/C=N/Nc2ccnc3cc(Cl)ccc23)o1 [GPQF-8Q6, 7-Chloro-4-{(2E)-2-[(5-nitrofuran-2-yl)methylidene]hydrazinyl}quinoline], the “Activity” value (S. mansoni adult worms) was “Inactive”.

With Clc1ccc2c(N/N=C/c3cccs3)ccnc2c1 [GPQF-8Q8, 7-Chloro-4-[(2E)-2-(thiophen-2-ylmethylidene)hydrazinyl]quinoline] the “Reduction in worm burden” value (S. mansoni-infected mice; 42 days post-infection) was 50.8%, the “Reduction in eggs found in feces” value (S. mansoni-infected mice; Kato-Katz technique) was 52.8% and the “Reduction in immature eggs found in the intestines” value (S. mansoni-infected mice; oogram) was 45.8%. For the same compound, the “Survival percentage of C. elegans” value (Caenorhabditis elegans; 10 μM) was 100%, the “Survival percentage of C. elegans” value (Caenorhabditis elegans; 25 μM) was 100% and the “Survival percentage of C. elegans” value (Caenorhabditis elegans; 50 μM) was 100%. For the same compound, the “Survival percentage of C. elegans” value (Caenorhabditis elegans; 100 μM) was 100%, the “Survival percentage of C. elegans” value (Caenorhabditis elegans; 200 μM) was 100% and the “SI (selectivity index)” value (Vero cells) was over 5.6. The CC50 at 72 h [1] was over 200 µM, the “Activity” value (S. mansoni adult worms) was “Active” and the EC50 (S. mansoni adult worms; [4]) was 28.5 µM. The EC50 (S. mansoni adult worms; [5]) was 35.8 µM.

For Cc1ccc(/C=N/Nc2ccnc3cc(Cl)ccc23)cc1 [GPQF-8Q10, 7-Chloro-4-[(2E)-2-(4-methylbenzylidene)hydrazinyl]quinoline], the “Survival percentage of C. elegans” value (Caenorhabditis elegans; 10 μM) was 100%, the “Survival percentage of C. elegans” value (Caenorhabditis elegans; 25 μM) was 100% and the “Survival percentage of C. elegans” value (Caenorhabditis elegans; 50 μM) was 100%. The “Survival percentage of C. elegans” value (Caenorhabditis elegans; 100 μM) was 100%, the “Survival percentage of C. elegans” value (Caenorhabditis elegans; 200 μM) was 100% and the “SI (selectivity index)” value (Vero cells) was over 12.8. The CC50 at 72 h [1] was over 200 µM, the “Time to worm mortality” value (S. mansoni adult worms; 25 µM) was at most 24 h and the “Activity” value (S. mansoni adult worms) was “Active”. The EC50 (S. mansoni adult worms; [4]) was 15.6 µM and the EC50 (S. mansoni adult worms; [5]) was 13.3 µM.

Fc1ccc(/C=N/Nc2ccnc3cc(Cl)ccc23)cc1 [GPQF-8Q12, 7-Chloro-4-[(2E)-2-(4-fluorobenzylidene)hydrazinyl]quinoline] gave a melting point of 236 to 241 °C.

With Clc1ccc2c(N/N=C/c3ccc(Cl)c(Cl)c3)ccnc2c1 [GPQF-8Q13, 7-Chloro-4-[(2E)-2-(3,4-dichlorobenzylidene)hydrazinyl]quinoline] the “Activity” value (S. mansoni adult worms) was “Inactive” and the melting point was 320 °C (dec.).

For Oc1ccc(/C=N/Nc2ccnc3cc(Cl)ccc23)c(O)c1 [GPQF-8Q14, 4-{(E)-[2-(7-chloroquinolin-4-yl)hydrazinylidene]methyl}benzene-1,3-diol], the “Activity” value (S. mansoni adult worms) was “Inactive”.

In the case of C/C(=N\Nc1ccnc2cc(Cl)ccc12)c1ccccc1 [GPQF-8Q16, 7-Chloro-4-[(2E)-2-(1-phenylethylidene)hydrazinyl]quinoline], the “Activity” value (S. mansoni adult worms) is reported as “Inactive” and the melting point is reported as 302 to 306 °C.

For C/C(=N\Nc1ccnc2cc(Cl)ccc12)c1ccc(O)cc1 [GPQF-8Q17, 4-{(1E)-1-[2-(7-chloroquinolin-4-yl)hydrazinylidene]ethyl}phenol], the “Activity” value (S. mansoni adult worms) was “Inactive”.

In the case of C/C(=N\Nc1ccnc2cc(Cl)ccc12)c1ccc(C)cc1 [GPQF-8Q18, 7-Chloro-4-{(2E)-2-[1-(4-methylphenyl)ethylidene]hydrazinyl}quinoline], the “Activity” value (S. mansoni adult worms) is reported as “Inactive” and the melting point is reported as 310 °C (dec.).

In the case of CCc1ccc(/C(C)=N/Nc2ccnc3cc(Cl)ccc23)cc1 [GPQF-8Q19, 7-Chloro-4-{(2E)-2-[1-(4-ethylphenyl)ethylidene]hydrazinyl}quinoline], the “Activity” value (S. mansoni adult worms) is reported as “Inactive” and the melting point is reported as 300 to 304 °C.

In the case of C/C(=N\Nc1ccnc2cc(Cl)ccc12)c1ccc(Cl)c(Cl)c1 [GPQF-8Q20, 7-Chloro-4-{(2E)-2-[1-(3,4-dichlorophenyl)ethylidene]hydrazinyl}quinoline], the “Activity” value (S. mansoni adult worms) is reported as “Inactive” and the melting point is reported as 294 to 298 °C.

In the case of C/C(CCc1ccccc1)=N\Nc1ccnc2cc(Cl)ccc12 [GPQF-8Q21, 7-Chloro-4-[(2E)-2-(4-phenylbutan-2-ylidene)hydrazinyl]quinoline], the “Activity” value (S. mansoni adult worms) is reported as “Inactive” and the melting point is reported as 161 to 166 °C.

In the case of CC/C(C)=N/Nc1ccnc2cc(Cl)ccc12 [GPQF-8Q22, 4-[(2E)-2-(butan-2-ylidene)hydrazinyl]-7-chloroquinoline], the “Activity” value (S. mansoni adult worms) is reported as “Inactive” and the melting point is reported as 71 to 74 °C.

With CCC/C(C)=N/Nc1ccnc2cc(Cl)ccc12 [GPQF-8Q23, 7-Chloro-4-[(2E)-2-(pentan-2-ylidene)hydrazinyl]quinoline] the “Activity” value (S. mansoni adult worms) was “Inactive” and the melting point was 250 °C (dec.).

With C/C(=N\Nc1ccnc2cc(Cl)ccc12)C(C)(C)C [GPQF-8Q25, 7-Chloro-4-[(2E)-2-(3,3-dimethylbutan-2-ylidene)hydrazinyl]quinoline] the “Activity” value (S. mansoni adult worms) was “Inactive” and the melting point was 228 to 232 °C.

For C/C(=N\Nc1ccnc2cc(Cl)ccc12)c1ccc(Cl)cc1 [GPQF-8Q26, 7-Chloro-4-{(2E)-2-[1-(4-chlorophenyl)ethylidene]hydrazinyl}quinoline], the “Activity” value (S. mansoni adult worms) was “Inactive” and the melting point was 290 to 292 °C.

For Cc1ccc(/C=N/NC(N)=S)cc1 [II], the IC50 [2] is given as 2.5 µM.

For NC(=S)N/N=C/c1ccc[nH]1 [IV], the IC50 ([2]; unit inferred) is given as 6.8 µM.

For c1ccc([C@H]2CN3CCSC3=N2)cc1 [LVM, levamisole, reference compound], the “Survival percentage of C. elegans” value (Caenorhabditis elegans; 10 μM) was 0%.

In the case of COc1ccc(-c2cnc(N/N=C/N3C(=O)c4ccccc4C3=O)s2)cc1 [LpQM-45], the “IC50 (worm motility, pairing, oviposition study)” value [3] is listed as 32.09 µg/mL (≈ 84.8 µM).

In the case of O=C(C1CCCCC1)N1CC(=O)N2CCc3ccccc3C2C1 (stereo not shown) [PZQ, praziquantel, reference compound], the “SI (selectivity index)” value (Vero cells) is reported as over 200, the CC50 at 72 h [1] is reported as over 200 µM and the EC50 (S. mansoni adult worms; [4]) is reported as 1 µM. It also gave an EC50 (S. mansoni adult worms; [5]) of 0.7 µM.

For NC(=S)N/N=C/c1ccncc1 [V], the IC50 ([2]; unit inferred) is listed as 42.4 µM.
